Literature values, collected in patent publication US12167995B2, “[((1R,2S,5R)-2-isopropyl-5-methyl-cyclohexanecarbonyl)-amino]-acetic acid isopropyl ester for treatment of chronic cough” (AXALBION SA, priority 2019, dated 2024).
Entries after “also recorded” stand apart in the source; their conditions may differ. Like-named read-outs stand apart in the source and are kept apart here.

Key:
[1] = system: refractory chronic cough (RCC); conditions: cited from earlier work
[2] = system: acute cough induced by capsaicin; conditions: MK-7264: in RCC patients or in healthy subjects; cited from earlier work
[3] = system: isolated guinea pig vagal nerves; conditions: Maher et al., 2014; cited from earlier work

Row | SMILES | patients with adverse events related to taste (dysgeusia, hypogeusia, or ageusia) ([1]; 50 mg per day) [%] | patients with adverse events related to taste (dysgeusia, hypogeusia, or ageusia) ([1]; 1200 mg per day) [%] | effect on VAS scores in RCC patients ([1]; human, in vivo) | effect on cough frequency in RCC patients ([1]; human, in vivo) | effect on acute cough induced by capsaicin [2] | TRPM8 dependence of inhibition of capsaicin-induced response [3]
1 | COc1cc(C(C)C)c(Oc2cnc(N)nc2N)cc1S(N)(=O)=O [MK-7264] | 81 | 100 | poorly effective in improving the VAS scores | efficient in reducing cough frequency; also recorded: efficient in decreasing cough frequency in RCC patients | not effective for acute cough induced by the tussive stimulus capsaicin | 
2 | O=C(Nc1ccccc1Br)N[C@@H]1CCN(c2ccc(C(F)(F)F)cn2)C1 [SB-705498] |  |  |  | do not reduce cough frequency in RCC patients | inhibit acute cough induced by capsaicin | 
3 | CC(C)[C@@H]1CC[C@@H](C)C[C@H]1O [menthol, (1R,2S,5R)-2-isopropyl-5-methyl-cyclohexanol] |  |  |  |  |  | in a TRPM8-independent way
